The values below come from ChEMBL document CHEMBL1133801, “Synthesis, characterisation and antiamoebic activity of new thiophene-2-carboxaldehyde thiosemicarbazone derivatives and their cyclooctadiene Ru(II) complexes” (Bioorg Med Chem Lett, 2001).

≈ marks a conversion by molar mass, not a printed value.

The test system of this assay is Entamoeba histolytica. The experiment in a line: In vitro antiamoebic activity was evaluated against HK-9 strain of Entamoeba histolytica. Format: functional, organism-based.
The term IC50 denotes the concentration that inhibits the measured activity by half. In turn, `S=C(N/N=C/c1cccs1)NC1CCCCC1` displayed an IC50 of 0.56 µg/mL (≈ 2.09 µM). Compound `S=C(N/N=C/c1cccs1)NC1CCCCCCC1` displayed an IC50 of 0.5 µg/mL (≈ 1.69 µM). In turn, `S=C(N/N=C/c1cccs1)N1CCCCCC1` showed an IC50 of 0.7 µg/mL (≈ 2.62 µM). Turning to `S=C(N/N=C/c1cccs1)NC1CCCC1`, the IC50 worked out at 0.64 µg/mL (≈ 2.53 µM). The compound `Cc1ncc([N+](=O)[O-])n1CCO` [METRONIDAZOLE] registered an IC50 of 0.22 µg/mL (≈ 1.29 µM).
